According to patent US20180353501A1 (Arvinas, Inc., priority 2017, published 2018):

Tested on: p38α and p38δ mRNA
Assay: Quantitative real-time PCR in MDA-MB-231 cells
Format: cell-based
Settings: 250 nM, 24 hours
Description: FIGS. 13A, 13B, 13C, and 13D. Exemplary compounds 50 and 46 degrade p38 isoforms in a manner that is rapid, sustained, and proteasome-dependent. (A) MDA-MB-231 cells were either pre-treated or not with the proteasome inhibitor epoxomicin (1 μM) or the neddylation inhibitor MLN4924 (1 μM) for 30 minutes and subsequently treated with either vehicle (DMSO), exemplary compound 50 (250 nM), or exemplary compound 46 (250 nM) for 6 hours. (B) Quantitative real-time PCR was performed after 24 hours of treatment with either vehicle (DMSO), exemplary compound 50 (250 nM), or exemplary compound 46 (250 nM) in MDAMB-231 cells. […]
MDA-MB-231 cells were plated at 3×10^5 cells per well in a 6-well dish, allowed to adhere, and were treated with either vehicle (DMSO) or PROTAC (250 nM) for 24 hours. […] RNA pellet was washed twice with 75% EtOH and allowed to air dry for 15 minutes, after which RNA was dissolved in 25 μL of nuclease-free H2O. cDNA was synthesized from 4 μg of total RNA per condition according to the manufacturer's protocol (Applied Biosystems) and real-time PCR was performed with 800 nM primers, diluted with 4 μL SYBR Green Reaction Mix (Applied Biosystems). qRT-PCR samples were performed and analyzed in triplicate, from two independent experiments. […]

Compound | change in mRNA for either p38 isoform
COc1cc2c(Oc3ccc(NC(=O)C4(C(=O)Nc5ccc(F)cc5)CC4)cc3F)ccnc2cc1OCCOCCOCCOc1cc(-c2scnc2C)ccc1CNC(=O)[C@@H]1C[C@@H](O)CN1C(=O)[C@H](C(C)C)N1Cc2ccccc2C1=O [compound 46] | no significant changes in mRNA
COc1cc2c(Oc3ccc(NC(=O)C4(C(=O)Nc5ccc(F)cc5)CC4)cc3F)ccnc2cc1OCCCCOCCCCOCC(=O)N[C@H](C(=O)N1C[C@H](O)C[C@H]1C(=O)NCc1ccc(-c2scnc2C)cc1)C(C)(C)C [compound 50, N-(3-fluoro-4-((7-(4-(4-(2-(((S)-1-((2S,4R)-4-hydroxy-2-((4-(4-methylthiazol-5-yl)benzyl)carbamoyl)pyrrolidin-1-yl)-3,3-dimethyl-1-oxobutan-2-yl)amino)-2-oxoethoxy)butoxy)buto-xy)-6-methoxyquinolin-4-yl)oxy)phenyl)-N-(4-fluorophenyl)cyclopropane-1,1-dicarboxa-mide] | no significant changes in mRNA
